Laboratory results: paper PMC4291147, “Molecular Basis of Histone Tail Recognition by Human TIP5 PHD Finger and Bromodomain of the Chromatin Remodeling Complex NoRC” (Structure(London, England:1993), 2015)
Values belong to the molecule of their own block, whether it stands above or below them. Where no end group is shown, it is not given here.

Experiments:
[1] = tested on: BAZ2 BRD; design: method as in Structural Genomics Consortium [SGC] website; settings: ref Structural Genomics Consortium [SGC] website; cited from earlier work
[2] = target: T1, TIP5 PHD (Homo sapiens, UniProt Q9UIF9); assay: ITC, histone peptide binding to TIP5 PHD; settings: 20 mM HEPES (pH 7.5–8), 150 mM NaCl, 0.5 mM TCEP, 293 or 298 K, protein 60–120 μM in cell, peptide 800–1,500 μM in syringe, ± error of nonlinear least-squares fit
T1 construct: single PHD zinc fingers (residues 1673- 1728 for TIP5); residues; His6-SUMO (N, cleaved yes); made in house; host or cells: E. coli BL21(DE3) Rosetta or BL21(DE3)-R3-pRARE2
T1 sequence (Q9UIF9 1673-1728): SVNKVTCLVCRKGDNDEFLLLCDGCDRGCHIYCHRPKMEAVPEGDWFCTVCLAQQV
Procedure: (§1) All calorimetric experiments were performed on an ITC200 or VP-ITC microcalorimeters (MicroCal). Protein solutions were buffer exchanged by gel filtration into buffer (20 mM HEPES [pH 8], 150 mM NaCl, 0.5 mM Tris [2-carboxyethyl]phosphine [TCEP]), and lyophilized histone peptides were dissolved in the same buffer. All measurements were carried out at 293 or 298 K. Protein solutions (60–120 μM) in the calorimetric cell were titrated with the peptide solutions (800–1,500 μM) in the syringe. The data were analyzed with the MicroCal ORIGIN software package using, in most cases, a single binding site model. The first data point was excluded from the analysis. […]
(§2) The cDNAs encoding tandem PHD zinc finger and bromodomain of human TIP5 […]
(§3) GeneBank: Q9UIF8) were synthesized by GenScript with codons optimized f or E. coli. expression and were subcloned into a modif ied pET15 vector using NdeI/XhoI sites f or expression as recombinant proteins with a His6 tag fused with small ubiquitin like modifier (SUMO)-1 fusion tag at the N terminus. cDNA sequences were used as a template to amplify single PHD zinc fingers (residues 1673- 1728 for TIP5; residues 2054- 2168 f or BAZ2B) regions. […]

[3] = target: T2, BAZ2B PHD (Homo sapiens, UniProt Q9UIF8); assay: ITC, histone peptide binding to BAZ2B PHD; settings: 20 mM HEPES (pH 7.5–8), 150 mM NaCl, 0.5 mM TCEP, 293 or 298 K, protein 60–120 μM in cell, peptide 800–1,500 μM in syringe, ± error of nonlinear least-squares fit
T2 construct: 1928- 1983 for BAZ2B) and bromodomains; His6-SUMO (N, cleaved yes); made in house; host or cells: E. coli BL21(DE3) Rosetta or BL21(DE3)-R3-pRARE2
T2 sequence (Q9UIF8 1928-1983): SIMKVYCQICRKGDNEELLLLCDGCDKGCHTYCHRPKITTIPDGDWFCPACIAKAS
Procedure: as §1, §2, §3

[4] = target: T3, TIP5 PHD-BRD (Homo sapiens, UniProt Q9UIF9); assay: ITC, histone peptide binding to tandem TIP5 PHD-BRD; settings: 20 mM HEPES (pH 7.5–8), 150 mM NaCl, 0.5 mM TCEP, 293 or 298 K, protein 60–120 μM in cell, peptide 800–1,500 μM in syringe, ± error of nonlinear least-squares fit
T3 construct: (residues 1673– 1901, UniProt: Q9UIF9); His6-SUMO (N, cleaved yes); made in house; host or cells: E. coli BL21(DE3) Rosetta or BL21(DE3)-R3-pRARE2
T3 sequence (Q9UIF9 1673-1901): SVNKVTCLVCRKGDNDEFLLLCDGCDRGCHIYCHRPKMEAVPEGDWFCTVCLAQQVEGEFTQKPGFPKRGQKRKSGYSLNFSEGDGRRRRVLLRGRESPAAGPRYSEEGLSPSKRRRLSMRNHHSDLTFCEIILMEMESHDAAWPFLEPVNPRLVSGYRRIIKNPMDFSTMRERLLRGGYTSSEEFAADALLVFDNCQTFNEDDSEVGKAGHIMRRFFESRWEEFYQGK
Procedure: as §1, §2, §3

[5] = target: T4, BAZ2B PHD-BRD (Homo sapiens, UniProt Q9UIF8); assay: ITC, histone peptide binding to tandem BAZ2B PHD-BRD; settings: 20 mM HEPES (pH 7.5–8), 150 mM NaCl, 0.5 mM TCEP, 293 or 298 K, protein 60–120 μM in cell, peptide 800–1,500 μM in syringe, ± error of nonlinear least-squares fit
T4 construct: human BAZ2B (residues 1928-2168,; His6-SUMO (N, cleaved yes); made in house; host or cells: E. coli BL21(DE3) Rosetta or BL21(DE3)-R3-pRARE2
T4 sequence (Q9UIF8 1928-2168): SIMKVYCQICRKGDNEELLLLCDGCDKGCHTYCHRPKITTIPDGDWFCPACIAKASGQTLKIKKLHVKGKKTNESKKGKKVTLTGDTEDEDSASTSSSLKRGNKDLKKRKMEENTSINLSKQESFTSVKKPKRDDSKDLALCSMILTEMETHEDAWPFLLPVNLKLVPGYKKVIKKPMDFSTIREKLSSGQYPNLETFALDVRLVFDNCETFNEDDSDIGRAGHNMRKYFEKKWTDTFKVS
Procedure: as §1, §2, §3

[6] = target: T5, TIP5 BRD (Homo sapiens, UniProt Q9UIF9); assay: ITC, histone peptide binding to TIP5 BRD; settings: 20 mM HEPES (pH 7.5–8), 150 mM NaCl, 0.5 mM TCEP, 293 or 298 K
T5 construct: (residues 1797- 1899 for TIP5, residues); hexa-histidine (pNIC28-Bsa4, TEV site) (N, cleaved yes); made in house; host or cells: E. coli BL21(DE3) Rosetta or BL21(DE3)-R3-pRARE2
T5 sequence (Q9UIF9 1797-1899): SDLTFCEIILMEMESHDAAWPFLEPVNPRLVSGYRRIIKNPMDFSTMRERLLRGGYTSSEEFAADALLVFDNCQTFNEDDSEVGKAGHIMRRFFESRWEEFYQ
Procedure: All calorimetric experiments were performed on an ITC200 or VP-ITC microcalorimeters (MicroCal). […] The data were analyzed with the MicroCal ORIGIN software package using, in most cases, a single binding site model. The first data point was excluded from the analysis. […]
as §2
as §3, with “a” for “a template to amplify single PHD zinc fingers (residues 1673- 1728 for TIP5; residues 2054- 2168 f or BAZ2B) regions.”
Single PHD zinc f ingers were introduced into the same modif ied SUMO tagged plasmid whereas single bromodomains were f urther subcloned into pET28 derived expression vectors, pNIC28- Bsa4 using ligation independent […]
Protein Expression and Purification […]
(§4) competent BL21(DE3) Rosetta cells (Invitrogen) or into BL21 (DE3)-R3-pRARE2 cells (phage- resistant derivative with a pRARE plasmid encoding rare codon tRNAs). Cells were grown at 37 °C in Terrific Broth (Sigma) from overnight cultures until A600 reached between 0.6- 0.8, then the media was cooled and 0.2 mM isopropyl-β-Dthiogalactopyranoside (IPTG) was added to induce the protein expression at 20 °C f or 16 hours. An extra 0.1 mM ZnCl 2 was added in the protein expression to those targets that contained a PHD zinc f inger.
Different purification procedures have been optimized for each target protein. In common, E. coli overexpressed cells were lysed using an EmulsiFlex-C5 hig h-pr es s ure homogenizer (Avestin - Mannheim, Germany) or high -pressure cell disruption (Constant Systems Limited) in loading buffer A from the nickel affinity column (HisTrap Chelating FF 5ml) in the presence of Protease Inhibitor Cocktail EDTA-free (Roche). […]
on a Beckman Coulter Avanti J-20 XP centrif uge). After centrif ugation, the supernatant was loaded onto the nickel column and eluted in an imidazole linear gradient. The

[7] = target: T6, BAZ2B BRD (Homo sapiens, UniProt Q9UIF8); assay: ITC, histone peptide binding to BAZ2B BRD; settings: 20 mM HEPES (pH 7.5–8), 150 mM NaCl, 0.5 mM TCEP, 293 or 298 K
T6 construct: 2054- 2168 f or BAZ2B) regions; hexa-histidine (pNIC28-Bsa4, TEV site) (N, cleaved yes); made in house; host or cells: E. coli BL21(DE3) Rosetta or BL21(DE3)-R3-pRARE2
T6 sequence (Q9UIF8 2054-2168): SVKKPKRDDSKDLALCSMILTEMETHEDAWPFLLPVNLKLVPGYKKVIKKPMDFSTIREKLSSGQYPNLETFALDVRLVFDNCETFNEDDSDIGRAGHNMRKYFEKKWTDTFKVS
Procedure: as §1, §2
GeneBank: Q9UIF8) were synthesized by GenScript with codons optimized f or E. coli. expression and were subcloned into a modif ied pET15 vector using NdeI/XhoI sites f or expression as recombinant proteins with a His6 tag fused with small ubiquitin like modifier (SUMO)-1 fusion tag at the N terminus. cDNA sequences were used as a template to amplify single PHD zinc fingers (residues 1673- 1728 for TIP5; residues 2054- 2168 f or BAZ2B) regions. Single PHD zinc f ingers were introduced into the same modif ied SUMO tagged plasmid whereas single bromodomains were f urther subcloned into pET28 derived expression vectors, pNIC28- Bsa4 using ligation independent cloning (Stols et al., 2002).
Protein Expression and Purification
as §4, with “Best expression constructs encoding all target proteins were transformed into E. coli competent” for “competent”
Different purification procedures have been optimized for each target protein. In common, E. coli overexpressed cells were lysed using an EmulsiFlex-C5 hig h-pr es s ure homogenizer (Avestin - Mannheim, Germany) or high -pressure cell disruption (Constant Systems Limited) in loading buffer A from the nickel affinity column (HisTrap Chelating FF 5ml) in the presence of Protease Inhibitor Cocktail EDTA-free (Roche).
Lysates were cleared by centrif ugation (14,000 x g f or 45m in at 4 °C, JLA 16.250 rotor, on a Beckman Coulter Avanti J-20 XP centrif uge). After centrif ugation, the supernatant was loaded onto the nickel column and eluted in an imidazole linear gradient. The

[8] = ITC, protein 60–120 μM in cell, peptide 800–1,500 μM in syringe, ± error of nonlinear least-squares fit

Molecule: CCCOc1ccn2c(C(C)=O)cc(-c3ccccc3S(C)(=O)=O)c2c1 [GSK2801]
potency/selectivity in words [1]: selective nanomolar

Kd [2]: 2.5 ± 0.43 µM
Kd [3]: 3.98 ± 0.61 µM
Molecule: CNCCCC[C@H](NC(=O)[C@@H](NC(=O)[C@H](CCCNC(=N)N)NC(=O)[C@H](C)N)[C@@H](C)O)C(=O)N[C@@H](CCC(N)=O)C(=O)N[C@H](C(=O)N[C@@H](C)C(=O)N[C@@H](CCCNC(=N)N)C(=O)N[C@@H](CCCCN)C(=O)O)[C@@H](C)O [H3(1–9)K4me]

Kd [2]: 2.51 ± 0.63 µM
Kd [3]: 3.07 ± 0.71 µM
Molecule: C[C@H](N)C(=O)N[C@@H](CCCNC(=N)N)C(=O)N[C@H](C(=O)N[C@@H](CCCCN)C(=O)N[C@@H](CCC(N)=O)C(=O)N[C@H](C(=O)N[C@@H](C)C(=O)N[C@@H](CCCNC(=N)N)C(=O)N[C@@H](CCCCN)C(=O)O)[C@@H](C)O)[C@@H](C)O [H3(1–9)]

Kd [4]: 1.87 ± 0.29 µM
Kd [5]: 2.33 ± 0.19 µM
Molecule: CC(=O)NCCCC[C@H](NC(=O)CNC(=O)CNC(=O)[C@@H](NC(=O)[C@H](CO)NC(=O)[C@H](CCCCN)NC(=O)[C@H](CCCNC(=N)N)NC(=O)[C@H](C)NC(=O)[C@@H](NC(=O)[C@H](CCC(N)=O)NC(=O)[C@H](CCCCN)NC(=O)[C@@H](NC(=O)[C@H](CCCNC(=N)N)NC(=O)[C@H](C)N)[C@@H](C)O)[C@@H](C)O)[C@@H](C)O)C(=O)N[C@@H](C)C(=O)N1CCC[C@H]1C(=O)N[C@@H](CCCNC(=N)N)C(=O)N[C@@H](CCCCN)C(=O)O [H3(1–18)K14ac]

Kd [6, 8]: 26.1 ± 0.37 µM
Kd [7, 8]: 42.41 ± 0.42 µM
Molecule: GAK(Ac)RHRK(Ac)VL [H4(14–22)K16acK20ac]

N ([6]; ITC stoichiometry, ± fit error): 1.186 ± 0.015
TΔS ([6]; ITC): -6.533 kcal/mol
ΔG ([6]; ITC): -6.207 kcal/mol
TΔS ([6]; ITC, listed as H4(14-22)K16ac): -6.533 kcal/mol
ΔG ([6]; ITC, listed as H4(14-22)K16ac): -6.206 kcal/mol
ΔH ([6]; ITC, ± fit error): -12.740 ± 0.226 kcal/mol
ΔH ([6]; ITC, ± fit error, listed as H4(14-22)K16ac): -12.740 ± 0.226 kcal/mol
N ([7]; ITC stoichiometry, ± fit error): 1.062 ± 0.064
TΔS ([7]; ITC): 2.989 kcal/mol
ΔG ([7]; ITC): -5.809 kcal/mol
ΔH ([7]; ITC, ± fit error): -2.820 ± 0.223 kcal/mol
Molecule: GAK(Ac)RHRKVL [H4(14–22)K16ac]

Kd [6, 8]: 63.25 ± 0.11 µM
Molecule: GGK(Ac)GLGK(Ac)G [H4(6–13)K8acK12ac]

KD [6, 8]: no binding
Molecule: Gly-Ala-Kac-Arg-His-Ala-Lys-Val-Leu [H4(14-22)K16ac [R19A], mutated H4K16ac peptide, R19 to A19]

KD [7, 8]: no binding
Molecule: Lys-Ser-Thr-Gly-Gly-Kac-Ala-Pro-Ala-Gln [H3(9-19)K14ac [R17A], mutated H3K14ac peptide, R17 to A17]
